From ChEMBL document CHEMBL3124764, “6-Triazolyl-substituted sulfocoumarins are potent, selective inhibitors of the tumor-associated carbonic anhydrases IX and XII” (Bioorg Med Chem Lett, 2014)

Columns and labels:
Carbonic anhydrase 2 = Carbonic anhydrase 2 (Homo sapiens, UniProt P00918); test: Inhibition of human recombinant carbonic anhydrase 2-mediated CO2 hydration after 6 hrs by stopped-flow assay
Carbonic anhydrase 1 = Carbonic anhydrase 1 (Homo sapiens, UniProt P00915); test: Inhibition of human recombinant carbonic anhydrase 1-mediated CO2 hydration after 6 hrs by stopped-flow assay
Carbonic anhydrase 9 [1] = target: T1, Carbonic anhydrase 9 (Homo sapiens, UniProt Q16790); test: Ratio of acetazolamide Ki to compound Ki for human recombinant carbonic anhydrase 9
Carbonic anhydrase 9 [2] = target: T1, Carbonic anhydrase 9; test: Inhibition of human recombinant carbonic anhydrase 9-mediated CO2 hydration after 6 hrs by stopped-flow assay

Chain of Carbonic anhydrase 1 (P00915 whole entry): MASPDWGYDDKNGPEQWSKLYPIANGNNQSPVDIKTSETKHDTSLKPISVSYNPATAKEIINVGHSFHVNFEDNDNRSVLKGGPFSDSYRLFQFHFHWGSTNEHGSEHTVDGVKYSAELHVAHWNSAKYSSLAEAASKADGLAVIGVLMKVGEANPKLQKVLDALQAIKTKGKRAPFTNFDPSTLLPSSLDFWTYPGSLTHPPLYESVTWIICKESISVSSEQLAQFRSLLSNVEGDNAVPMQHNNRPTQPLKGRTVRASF

Row | Ki (Carbonic anhydrase 2) [µM] | Ki (Carbonic anhydrase 1) [µM] | Ratio Ki (Carbonic anhydrase 9 [1]) | Ki (Carbonic anhydrase 9 [2]) [µM] | SMILES
1 | > 10 | > 10 | – | – | O=S1(=O)C=Cc2cc(-n3nncc3-c3ccc(F)cc3)ccc2O1
2 | > 10 | > 10 | – | 0.102 | O=S1(=O)C=Cc2cc(-n3nncc3-c3ccc(OC(F)(F)F)cc3)ccc2O1
3 | > 10 | > 10 | – | 0.875 | Nc1cccc(-c2cn(-c3ccc4c(c3)C=CS(=O)(=O)O4)nn2)c1
4 | > 10 | > 10 | – | 0.0083 | COc1ccc(-c2cnnn2-c2ccc3c(c2)C=CS(=O)(=O)O3)cc1
5 | > 10 | > 10 | – | – | O=S1(=O)C=Cc2cc(-n3cc(-c4cccc(F)c4)nn3)ccc2O1
6 | > 10 | > 10 | – | 0.0671 | O=S1(=O)C=Cc2cc(-n3nncc3-c3ccccc3)ccc2O1
7 | > 10 | > 10 | – | 0.0092 | O=S1(=O)C=Cc2cc(-n3nncc3-c3ccc(Cl)cc3)ccc2O1
8 | > 10 | > 10 | – | 0.0074 | O=S1(=O)C=Cc2cc(-n3nncc3-c3cccc(F)c3)ccc2O1

More lines, now with the values behind:

Row | SMILES | Ki (Carbonic anhydrase 2) [µM] | Ki (Carbonic anhydrase 1) [µM] | Ratio Ki (Carbonic anhydrase 9 [1]) | Ki (Carbonic anhydrase 9 [2]) [µM]
9 | O=S1(=O)C=Cc2cc(-n3cc(C4CC4)nn3)ccc2O1 | > 10 | > 10 | – | –
10 | O=S1(=O)C=Cc2cc(-n3cc(-c4ccc(Cl)cc4)nn3)ccc2O1 | > 10 | > 10 | 3 | –
11 | O=S1(=O)C=Cc2cc(-n3nncc3-c3cccc(Cl)c3)ccc2O1 | > 10 | > 10 | – | 0.0088
12 | CC(C)(C)c1cn(-c2ccc3c(c2)C=CS(=O)(=O)O3)nn1 | > 10 | > 10 | – | 0.0105
13 | O=S1(=O)C=Cc2cc(-n3cc(-c4cccc(Cl)c4)nn3)ccc2O1 | > 10 | > 10 | – | 0.0931
14 | O=S1(=O)C=Cc2cc(-n3cc(-c4ccc(F)cc4)nn3)ccc2O1 | > 10 | > 10 | – | –
15 | O=S1(=O)C=Cc2cc(-n3cc(-c4ccc(C(F)(F)F)cc4)nn3)ccc2O1 | > 10 | > 10 | – | 0.136
16 | COc1cccc(-c2cnnn2-c2ccc3c(c2)C=CS(=O)(=O)O3)c1 | > 10 | > 10 | – | 0.0091
17 | Nc1ccccc1-c1cnnn1-c1ccc2c(c1)C=CS(=O)(=O)O2 | > 10 | > 10 | – | 0.0095
18 | O=S1(=O)C=Cc2cc(-n3nncc3-c3ccc(C(F)(F)F)cc3)ccc2O1 | > 10 | > 10 | – | 0.0072
19 | O=S1(=O)C=Cc2cc(-n3nncc3-c3cccc(C(F)(F)F)c3)ccc2O1 | > 10 | > 10 | – | –
20 | CC(C)(O)c1cn(-c2ccc3c(c2)C=CS(=O)(=O)O3)nn1 | > 10 | > 10 | – | 0.0627
21 | Nc1ccccc1-c1cn(-c2ccc3c(c2)C=CS(=O)(=O)O3)nn1 | > 10 | > 10 | – | 0.0079
